Laboratory results reported in patent US5968801A, “Polyhydroxyalkanoate depolymerase and process for producing the same” (Taisei Corporation, priority 1997, dated 1999).

Target: PHA depolymerase
Assay type: biochemical, Corynebacterium aquaticum IM-1
Conditions: pH 6.5; read-out: IC50 (concentration of inhibitor at which the enzyme activity was inhibited by 50%)

Row | Compound | IC50
1 | O=S(=O)(F)Cc1ccccc1 [PMSF, Phenylmethylsulfonyl fluoride] | 1.92 mM
2 | O[C@H](CS)[C@H](O)CS (racemic) [DTT, dithiothreitol] | 73 mM
